From PubChem BioAssay (NCI)
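A five-concentration, 48-hour dose response in 96-well plates underlies each endpoint, interpolated linearly between surrounding concentrations. At the TGI there is no net growth.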

Assays:
Test in all cases: inhibition of tumour cell growth, NCI panel, 48 h
HCT-15 colon = system: HCT-15 colon
LOX IMVI melanoma = system: LOX IMVI melanoma
CAKI-1 renal = system: CAKI-1 renal
M14 melanoma = system: M14 melanoma
HOP-92 NSCLC = system: HOP-92 NSCLC
SNB-19 CNS = system: SNB-19 CNS
HT29 colon = system: HT29 colon
UO-31 renal = system: UO-31 renal
SK-MEL-28 melanoma = system: SK-MEL-28 melanoma
NCI-H226 lung = system: NCI-H226 lung
TK-10 renal = system: TK-10 renal
U251 CNS = system: U251 CNS
MALME-3M melanoma = system: MALME-3M melanoma
IGROV1 ovarian = system: IGROV1 ovarian
COLO 205 colon = system: COLO 205 colon
PC-3 prostate = system: PC-3 prostate
RXF 393 renal = system: RXF 393 renal
EKVX NSCLC = system: EKVX NSCLC
T-47D breast = system: T-47D breast

SMILES	TGI (HCT-15 colon) [µM]	TGI (LOX IMVI melanoma) [µM]	TGI (CAKI-1 renal) [µM]	TGI (M14 melanoma) [µM]	TGI (HOP-92 NSCLC) [µM]	TGI (SNB-19 CNS) [µM]	TGI (HT29 colon) [µM]	TGI (UO-31 renal) [µM]	TGI (SK-MEL-28 melanoma) [µM]	TGI (NCI-H226 lung) [µM]	TGI (TK-10 renal) [µM]	TGI (U251 CNS) [µM]	TGI (MALME-3M melanoma) [µM]	TGI (IGROV1 ovarian) [µM]	TGI (COLO 205 colon) [µM]	TGI (PC-3 prostate) [µM]	TGI (RXF 393 renal) [µM]	TGI (EKVX NSCLC) [µM]	TGI (T-47D breast) [µM]
N#CC1C(=O)NC23CCCCC2C1c1ccccc1O3 (stereo not given)	> 100	> 100	> 100	> 100	> 100	> 100	> 100	> 100	> 100	> 100	> 100	> 100	> 100	> 100	> 100	> 100	> 100	> 100	
CCOC(=O)C1C(c2ccc3c(c2)OCO3)c2c([nH][nH]c2=O)CC1(C)O (stereo not given)	> 100	> 100	> 100	> 100	> 100	> 100	> 100	> 100	> 100		> 100	> 100	> 100	> 100	> 100	> 100		> 100	> 100
CC(=O)C(CN(CC(C)C)CC(C)C)C(c1ccccc1)c1c(O)c2ccccc2oc1=O (stereo not given)	> 100	> 100	> 100	> 100	> 100	> 100	> 100		> 100	> 100	> 100		> 100	> 100	> 100		> 100	> 100	
NC(N)=NCCCC(NC(=O)c1cccc2c(=O)c3ccccc3[nH]c12)C(=O)O (stereo not given)	> 100	> 100		> 100	> 100	> 100	> 100	> 100	> 100	> 100	> 100	> 100	> 100	> 100	> 100	> 100		> 100	
O=[N+]([O-])c1cccc2nnccc12	28.3		90.6	> 100	71.4	87.1	53.6	95.4		58	> 100	> 100	26.9	> 100	34.1	> 100	> 100	> 100	> 100
CSc1nc2c(c(=O)[nH]1)N=C(c1ccc([N+](=O)[O-])cc1)CC(c1ccccc1)N2 (stereo not given)		92.4	> 100	> 100	> 100	> 100	48	> 100	> 100	> 100		> 100	> 100	> 100	> 100	> 100	> 100	> 100	
CC(=O)C1C(=O)C(=O)N(c2cccc([N+](=O)[O-])c2)C1=O (stereo not given)	> 100	> 100	> 100	> 100	> 100	> 100	> 100	> 100	> 100	> 100	> 100	> 100		> 100	> 100	> 100	> 100	> 100	
COc1cc2c(c(OC)c1)/C(=C/Sc1ccccc1)C(=O)N(C(C)(C)C)C2	91.9	37.1	> 100		38.8		75.1		> 100	> 100	> 100	98.6		82.8	50.6	> 100		> 100	> 100
C[n+]1ccc(/C2=C3\C=CC(=N3)/C(c3cc[n+](C)cc3)=c3/cc/c([nH]3)=C(\c3cc[n+](C)cc3)C3=N/C(=C(/c4cc[n+](C)cc4)C4C=CC2N4)C=C3)cc1	> 100	> 100	> 100	> 100	> 100	> 100	> 100	> 100	> 100	> 100	> 100	> 32.2	> 100	> 100	> 100		> 100	> 100	> 100
CCOC(=O)/C(C=Nc1c(C)n(C)n(-c2ccccc2)c1=O)=C(/C)O	> 100	> 100	> 100	> 100	> 100			> 100		> 100	> 100	> 100	> 100	> 100	> 100	> 100	> 100	> 100	
COc1cc(C2SCC(=O)N2c2cccc(Cl)c2)cc(OC)c1OC (stereo not given)	> 100	> 100	> 100	> 100	> 100	> 100	> 100	> 100	> 100	> 100	> 100	> 100		> 100	> 100	> 100		> 100	
COc1ccc(CC2(O)C3CC4CCC2C4C3)cc1 (stereo not given)	> 100	> 100	> 100	> 100	> 100	> 100	> 100	> 100	> 100	> 100	> 100	> 100	> 100	> 100	> 100	> 100		> 100	
CCCP1(=O)C=C(C)C(=C(Cl)Cl)C(C)=C1 (stereo not given)	> 100			> 100	89.6		> 100	> 100	> 100		> 100	> 100	> 100	> 100	> 100		> 100	> 100	
CC1CC(C)C(C#N)N(C)c2ccccc21 (stereo not given)	> 100		> 100	> 100		> 100	> 100	> 100	> 100	> 100	> 100		> 100	> 100	> 100	> 100	> 100	> 100	> 100
